From PubChem BioAssay (NCI)
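96-well plates; 48 h exposure; 5 concentrations. Endpoints by linear interpolation between flanking doses. Not reached: highest tested concentration assigned. GI50: concentration for 50% inhibition of growth. TGI: concentration producing complete growth inhibition.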

Legend:
Assay in all cases: NCI anticancer screen, dose series, 48 h
[1] = tested on: K-562 leukemia
[2] = tested on: SR leukemia
[3] = tested on: A549 NSCLC
[4] = tested on: SN12C renal
[5] = tested on: SK-MEL-2 melanoma
[6] = tested on: TK-10 renal
[7] = tested on: ACHN renal
[8] = tested on: SW-620 colon
[9] = tested on: SNB-75 CNS
[10] = tested on: HCC-2998 colon
[11] = tested on: A498 renal
[12] = tested on: MCF7 breast
[13] = tested on: NCI/ADR-RES ovarian
[14] = tested on: COLO 205 colon
[15] = tested on: T-47D breast
[16] = tested on: SF-268 CNS
[17] = tested on: BT-549 breast
[18] = tested on: CAKI-1 renal
[19] = tested on: OVCAR-8 ovarian
[20] = tested on: HS 578T breast
[21] = tested on: HT29 colon
[22] = tested on: 786-0 renal
[23] = tested on: NCI-H226 lung
[24] = tested on: OVCAR-4 ovarian
[25] = tested on: SK-MEL-5 melanoma
[26] = tested on: OVCAR-3 ovarian
[27] = tested on: SK-MEL-28 melanoma
[28] = tested on: RPMI-8226 leukemia
[29] = tested on: SF-539 CNS
[30] = tested on: NCI-H460 lung
[31] = tested on: PC-3 prostate
[32] = tested on: RXF 393 renal
[33] = tested on: MDA-MB-231 breast
[34] = tested on: SK-OV-3 ovarian
[35] = tested on: SF-295 CNS
[36] = tested on: UACC-257 melanoma
[37] = tested on: HOP-62 NSCLC
[38] = tested on: LOX IMVI melanoma
[39] = tested on: DU-145 prostate
[40] = tested on: NCI-H23 lung
[41] = tested on: UO-31 renal
[42] = tested on: MOLT-4 leukemia
[43] = tested on: U251 CNS
[44] = tested on: MALME-3M melanoma
[45] = tested on: IGROV1 ovarian
[46] = tested on: KM12 colon
[47] = tested on: CCRF-CEM leukemia
[48] = tested on: MDA-MB-435
[49] = tested on: HOP-92 NSCLC
[50] = tested on: HCT-116 colon
[51] = tested on: OVCAR-5 ovarian
[52] = tested on: SNB-19 CNS
[53] = tested on: NCI-H522 lung
[54] = tested on: UACC-62 melanoma
[55] = tested on: HL-60(TB) leukemia
[56] = tested on: HCT-15 colon
[57] = tested on: EKVX NSCLC
[58] = tested on: M14 melanoma

In the case of `Cc1ccc(NC(=O)Nc2c(Cl)cccc2Cl)cn1`, the GI50 [1] is reported as 4.03 µM, the TGI [1] is reported as > 100 µM and the GI50 [2] is reported as 3.89 µM. For the same compound, the TGI [2] was 22.7 µM, the GI50 [3] was 8.51 µM and the TGI [3] was 43 µM. The GI50 [4] was 55.4 µM, the TGI [4] was > 100 µM and the GI50 [5] was 5.87 µM. The TGI [5] was 27.5 µM, the GI50 [6] was 18.1 µM and the TGI [6] was 41.6 µM. The GI50 [7] was 51.5 µM, the TGI [7] was > 100 µM and the GI50 [8] was 4.24 µM. For the same compound, the TGI [8] was > 100 µM, the GI50 [9] was 5.88 µM and the TGI [9] was > 100 µM. For the same compound, the GI50 [10] was 28 µM, the TGI [10] was > 100 µM and the GI50 [11] was 12.1 µM. For the same compound, the TGI [11] was > 100 µM, the GI50 [12] was 7.29 µM and the TGI [12] was > 100 µM. For the same compound, the GI50 [13] was 4.46 µM, the TGI [13] was 70.3 µM and the GI50 [14] was 3.61 µM. The TGI [14] was 24.3 µM, the GI50 [15] was 13.9 µM and the TGI [15] was > 100 µM. For the same compound, the GI50 [16] was 14.5 µM, the TGI [16] was > 100 µM and the GI50 [17] was 59.1 µM. The TGI [17] was > 100 µM, the GI50 [18] was 5.78 µM and the TGI [18] was > 100 µM. For the same compound, the GI50 [19] was 19.4 µM, the TGI [19] was > 100 µM and the GI50 [20] was 1.94 µM. For the same compound, the TGI [20] was 6.89 µM, the GI50 [21] was 3.93 µM and the TGI [21] was 15.6 µM. The GI50 [22] was 61.2 µM, the TGI [22] was > 100 µM and the GI50 [23] was > 100 µM. The TGI [23] was > 100 µM, the GI50 [24] was 65 µM and the TGI [24] was > 100 µM. The GI50 [25] was 5.06 µM, the TGI [25] was > 100 µM and the GI50 [26] was 4.5 µM. For the same compound, the TGI [26] was 22.7 µM, the GI50 [27] was 58.2 µM and the TGI [27] was > 100 µM. The GI50 [28] was 9.16 µM, the TGI [28] was > 100 µM and the GI50 [29] was 5.24 µM. For the same compound, the TGI [29] was > 100 µM, the GI50 [30] was 4.91 µM and the TGI [30] was 36.1 µM. The GI50 [31] was 25.2 µM, the TGI [31] was > 100 µM and the GI50 [32] was 5.85 µM. The TGI [32] was 30.9 µM, the GI50 [33] was 7.66 µM and the TGI [33] was > 100 µM. The GI50 [34] was 5.97 µM, the TGI [34] was > 100 µM and the GI50 [35] was 5.49 µM. For the same compound, the TGI [35] was > 100 µM, the GI50 [36] was 71.4 µM and the TGI [36] was > 100 µM. For the same compound, the GI50 [37] was 8.33 µM, the TGI [37] was > 100 µM and the GI50 [38] was 21.3 µM. For the same compound, the TGI [38] was > 100 µM, the GI50 [39] was 16.2 µM and the TGI [39] was 76.6 µM. For the same compound, the GI50 [40] was 26.1 µM, the TGI [40] was > 100 µM and the GI50 [41] was 47 µM. The TGI [41] was > 100 µM, the GI50 [42] was 6.38 µM and the TGI [42] was 32.4 µM. The GI50 [43] was 5.07 µM, the TGI [43] was > 100 µM and the GI50 [44] was 8.57 µM. The TGI [44] was > 100 µM, the GI50 [45] was 8.14 µM and the TGI [45] was > 100 µM. For the same compound, the GI50 [46] was 4.37 µM, the TGI [46] was > 100 µM and the GI50 [47] was 5.79 µM. For the same compound, the TGI [47] was > 100 µM, the GI50 [48] was 1.96 µM and the TGI [48] was 4.69 µM. For the same compound, the GI50 [49] was 16.8 µM, the TGI [49] was > 100 µM and the GI50 [50] was 11.1 µM. The TGI [50] was > 100 µM, the GI50 [51] was 72.9 µM and the TGI [51] was > 100 µM. For the same compound, the GI50 [52] was 26.1 µM, the TGI [52] was > 100 µM and the GI50 [53] was 12.5 µM. For the same compound, the TGI [53] was 44 µM, the GI50 [54] was 5.76 µM and the TGI [54] was > 100 µM. The GI50 [55] was 4.23 µM, the TGI [55] was 29.7 µM and the GI50 [56] was 5.61 µM. For the same compound, the TGI [56] was > 100 µM, the GI50 [57] was 3.04 µM and the TGI [57] was > 100 µM. The GI50 [58] was 12 µM and the TGI [58] was > 100 µM.
